Several values for one entry are separate records, joined by “and”; a condition that tells them apart may be missing. Equal values may be shown once.
What was measured:
[1] = excess molar enthalpy (molar enthalpy of mixing); xn = mol fraction of the nth substance listed; conditions: 100 kPa, Liquid, Calvet calorimetry
[2] = xn = mol fraction of the nth substance listed; conditions: 100 kPa, Liquid, Vibrating tube method

O=C1CCCO1 [γ-butyrolactone] + O
Conditions	excess molar enthalpy, [1]	mass density, [2]
288.15 K, x1 = 0.00118	-0.000825 kcal/mol	999.977 kg/m3
288.15 K, x1 = 0.001181	-0.000827 kcal/mol	999.978 kg/m3
288.15 K, x1 = 0.002358	-0.00163 kcal/mol	1000.85 kg/m3
288.15 K, x1 = 0.003533	-0.0024 kcal/mol	1001.72 kg/m3
288.15 K, x1 = 0.003534	-0.0024 kcal/mol	1001.72 kg/m3
288.15 K, x1 = 0.004705	-0.00315 kcal/mol	1002.58 kg/m3
288.15 K, x1 = 0.004706	-0.00315 kcal/mol	1002.59 kg/m3
288.15 K, x1 = 0.005874	-0.00388 kcal/mol	1003.43 kg/m3
288.15 K, x1 = 0.005876	-0.00387 kcal/mol	1003.43 kg/m3
288.15 K, x1 = 0.007042	-0.00458 kcal/mol	1004.27 kg/m3
288.15 K, x1 = 0.007044	-0.00458 kcal/mol	1004.28 kg/m3
298.15 K, x1 = 0.001179	-0.000598 kcal/mol	997.864 kg/m3
298.15 K, x1 = 0.002356	-0.00117 kcal/mol	998.672 kg/m3
298.15 K, x1 = 0.00353	-0.00171 kcal/mol	999.474 kg/m3
298.15 K, x1 = 0.004701	-0.00224 kcal/mol	1000.27 kg/m3
298.15 K, x1 = 0.005869	-0.00275 kcal/mol	1001.06 kg/m3
298.15 K, x1 = 0.007036	-0.00324 kcal/mol	1001.84 kg/m3
308.15 K, x1 = 0.001179	-0.000363 kcal/mol and -0.000361 kcal/mol	994.794 kg/m3 and 994.797 kg/m3
308.15 K, x1 = 0.002356	-0.0007 kcal/mol and -0.000698 kcal/mol	995.554 kg/m3 and 995.552 kg/m3
308.15 K, x1 = 0.00353	-0.00101 kcal/mol	996.301 kg/m3
308.15 K, x1 = 0.003531	-0.00101 kcal/mol	996.302 kg/m3
308.15 K, x1 = 0.004702	-0.00131 kcal/mol	997.038 kg/m3
308.15 K, x1 = 0.004703	-0.0013 kcal/mol	997.039 kg/m3
308.15 K, x1 = 0.00587	-0.00158 kcal/mol	997.774 kg/m3
308.15 K, x1 = 0.005871	-0.00158 kcal/mol	997.78 kg/m3
308.15 K, x1 = 0.007038	-0.00184 kcal/mol	998.505 kg/m3 and 998.496 kg/m3
318.15 K, x1 = 0.001181	-0.000116 kcal/mol and -0.000115 kcal/mol	990.926 kg/m3 and 990.925 kg/m3
318.15 K, x1 = 0.002359	-0.000209 kcal/mol and -0.000208 kcal/mol	991.631 kg/m3 and 991.634 kg/m3
318.15 K, x1 = 0.003534	-0.000283 kcal/mol and -0.000286 kcal/mol	992.336 kg/m3 and 992.333 kg/m3
318.15 K, x1 = 0.004706	-0.000346 kcal/mol	993.03 kg/m3
318.15 K, x1 = 0.004707	-0.000343 kcal/mol	993.03 kg/m3
318.15 K, x1 = 0.005875	-0.00039 kcal/mol	993.721 kg/m3
318.15 K, x1 = 0.005876	-0.000386 kcal/mol	993.713 kg/m3
318.15 K, x1 = 0.007043	-0.000418 kcal/mol	994.396 kg/m3
318.15 K, x1 = 0.007044	-0.000413 kcal/mol	994.396 kg/m3

CC1CCC(=O)O1 (stereo not drawn) [γ-valerolactone] + O
Conditions	excess molar enthalpy, [1]	mass density, [2]
288.15 K, x1 = 0.000948	-0.00117 kcal/mol	999.61 kg/m3
288.15 K, x1 = 0.001895	-0.0023 kcal/mol	1000.12 kg/m3
288.15 K, x1 = 0.00284	-0.00341 kcal/mol	1000.62 kg/m3
288.15 K, x1 = 0.003783	-0.00447 kcal/mol	1001.12 kg/m3
288.15 K, x1 = 0.004724	-0.00551 kcal/mol	1001.62 kg/m3
288.15 K, x1 = 0.005663	-0.00652 kcal/mol	1002.11 kg/m3
298.15 K, x1 = 0.000947	-0.000872 kcal/mol	997.5 kg/m3
298.15 K, x1 = 0.001893	-0.00171 kcal/mol	997.952 kg/m3 and 997.948 kg/m3
298.15 K, x1 = 0.002836	-0.00252 kcal/mol	998.397 kg/m3
298.15 K, x1 = 0.002837	-0.00253 kcal/mol	998.399 kg/m3
298.15 K, x1 = 0.003778	-0.00331 kcal/mol	998.844 kg/m3
298.15 K, x1 = 0.003779	-0.00331 kcal/mol	998.843 kg/m3
298.15 K, x1 = 0.004718	-0.00407 kcal/mol	999.282 kg/m3
298.15 K, x1 = 0.004719	-0.00406 kcal/mol	999.28 kg/m3
298.15 K, x1 = 0.005658	-0.00479 kcal/mol and -0.00481 kcal/mol	999.717 kg/m3 and 999.723 kg/m3
308.15 K, x1 = 0.000947	-0.000574 kcal/mol	994.435 kg/m3
308.15 K, x1 = 0.001892	-0.00113 kcal/mol	994.839 kg/m3
308.15 K, x1 = 0.001893	-0.00113 kcal/mol	994.839 kg/m3
308.15 K, x1 = 0.002835	-0.00165 kcal/mol	995.239 kg/m3
308.15 K, x1 = 0.002836	-0.00165 kcal/mol	995.239 kg/m3
308.15 K, x1 = 0.003777	-0.00215 kcal/mol	995.637 kg/m3
308.15 K, x1 = 0.003778	-0.00215 kcal/mol	995.634 kg/m3
308.15 K, x1 = 0.004716	-0.00262 kcal/mol	996.023 kg/m3
308.15 K, x1 = 0.004718	-0.00261 kcal/mol	996.023 kg/m3
308.15 K, x1 = 0.005656	-0.00306 kcal/mol and -0.00308 kcal/mol	996.412 kg/m3 and 996.415 kg/m3
318.15 K, x1 = 0.000946	-0.000275 kcal/mol	990.573 kg/m3
318.15 K, x1 = 0.000947	-0.000275 kcal/mol	990.572 kg/m3
318.15 K, x1 = 0.001891	-0.000526 kcal/mol	990.933 kg/m3
318.15 K, x1 = 0.001892	-0.000526 kcal/mol	990.933 kg/m3
318.15 K, x1 = 0.002835	-0.000758 kcal/mol	991.289 kg/m3
318.15 K, x1 = 0.003776	-0.00097 kcal/mol	991.639 kg/m3
318.15 K, x1 = 0.003777	-0.000966 kcal/mol	991.641 kg/m3
318.15 K, x1 = 0.004716	-0.00115 kcal/mol and -0.00114 kcal/mol	991.985 kg/m3 and 991.983 kg/m3
318.15 K, x1 = 0.005655	-0.00131 kcal/mol and -0.00132 kcal/mol	992.329 kg/m3 and 992.332 kg/m3

Source: the NIST ThermoML archive (doi:10.1021/acs.jced.8b01146)
